Experimental data: patent publication US9540299B2, “MTOR-independent activator of TFEB for autophagy enhancement and uses thereof” (Hong Kong Baptist University, priority 2015, dated 2017)

Test system: N2a cells
Experiment: LC3-II levels by western blot in N2a cells (autophagy induction)
Type: cell-based, mouse
Details: for LC3-II levels in the presence of chloroquine compared with CQ treatment alone / LC3-II levels compared to the vehicle control: 12 h; for LC3-II levels in the presence of chloroquine compared with CQ treatment alone / LC3-II levels compared to the vehicle control / LC3-II levels in cells depleted of Atg5 by siRNA: analogs 1 μM; for LC3-II levels in the presence of chloroquine compared with CQ treatment alone: CQ 20 μM; for LC3-II levels compared to the vehicle control / LC3-II levels in cells depleted of Atg5 by siRNA: curcumin 10 μM; for LC3-II levels compared to the vehicle control: vs 0.1% DMSO; for LC3-II levels in cells depleted of Atg5 by siRNA: siAtg5 72 h then compound 12 h
Description: N2a cells were treated with curcumin (Cur, 10 μM) and its analogs (1 μM) for 12 h (FIG. 2A). N2a cells were treated with Cur (10 μM), analogs A2, B3 and C1 (1 μM) with or without chloroquine (CQ, 20 μM) for 12 h (FIG. 2B). N2a cells were transfected with non-target siRNA (siNT) or Atg5 siRNA (siAtg5, 50 nM) for 72 h and then treated with Cur (10 μM) and analogs A2, B3 and C1 (1 μM) for 12 h (FIG. 2C). The expression of LC3-II is determined by western blot. Relative intensity is normalized to that of ACTB/β-actin. Data are presented as the mean±SD from three independent experiments. *p<0.05 vs. the control (0.1% DMSO); #p<0.05 vs. CQ treatment alone. N. S.=not significant.
N2a cells are treated with curcumin E series analogs (1 μM) for 12 hours. The expression of LC3-II is shown in Western blot (FIG. 13A). LC3-II relative intensity is normalized to that of ACTB/β-actin. Quantification data (FIG. 13B) are presented as the mean±SD from three independent experiments. *p<0.05 vs. the control (0.1% DMSO).
N2a cells are treated with E2, E3 and E4 (1 μM) in the presence or absence of chloroquine (CQ, 20 μM) for 12 hours. The expression of LC3-II is shown in Western blot (FIG. 14A). LC3-II relative intensity is normalized to that of ACTB/β-actin. Quantification data (FIG. 14B) are presented as the mean±SD from three independent experiments. *p<0.05 vs. the control (0.1% DMSO); ^#p<0.05 vs. CQ treatment alone.
N2a cells are treated with E4 for 12 hours. The expression of LC3-II is determined by Western blotting (FIG. 20A). LC3-II relative intensity is normalized to that of ACTB/β-actin. Quantification data (FIG. 20B) are presented as the mean±SD from three independent experiments. *p<0.05, **p<0.01 vs. the control (0.1% DMSO).
N2a cells are transfected with non-target siRNA (Si-NT) and TFEB siRNA. The levels of TFEB is examined by Western blotting (FIG. 27A) analysis and quantified (FIG. 27B). The effects of knock-down the expression of TFEB on the expression of LC3-II levels induced by E4 (1 μM) is also examined by Western blotting (FIG. 27C). Quantification data are presented as the mean±SD from three independent experiments (FIG. 27D). *p<0.05 vs. the control (0.1% DMSO), # p<0.05 vs. CQ alone.
N2a, Hela and Hela cells stably expressing 3×-Flag-TFEB are cultured in DMEM supplemented with 10% FBS. SH-SY5Y cells are cultured in DMEM/F12 supplemented with 10% FBS. For drug treatment, the full medium is replaced by fresh Opti-MEM I and then the compounds (in 0.1% DMSO) are added to the cells and incubated for 12 h. Inducible PC12 cells overexpressing SNCA (WT and A53T) (a kind gift from Prof. David C. Rubinsztein at Cambridge University) are grown in DMEM supplemented with 10% horse serum, 5% FBS, 50 μg/ml G418, and 150 μg/ml hygromycin B at 37° C., 10% CO2. Cells are treated with 2 μg/ml doxycycline (Dox) for 24 h to induce SNCA expression. The full medium is changed to Opti-MEM I containing the testing compounds for another 48 h.
Mouse Atg5 siRNA (25 nM) or human TFEB (100 nM) siRNA and the non-target siRNAs are transfected with Lipofectamine RNAiMAX (13778030, Invitrogen) and incubated at 37° C. for 72 h.
Cells are lysed on ice in 1× Lysis Buffer (9803, Life Technologies) with complete protease inhibitor mixture (04693124001, Roche Applied Science). Animal tissues are homogenized in nine volumes of ice-cold PBS supplemented with protease inhibitors. Cytosolic and nuclear fractions are isolated using protocols similar to those described previously. Anti-Flag or TFEB antibody is added to the whole cell lysates and Dynabeads® Protein G (10003D, Life Technologies) is used for immunoprecipitation. Proteins are separated by 10-15% SDS-PAGE, transferred, and blotted with the antibodies described. The blots are then incubated with secondary antibodies or the Clean-Blot IP Detection Reagent (21230, Thermo Scientific) at room temperature for 1 h. The protein signals are detected by ECL kit (32106, Pierce) and quantified using ImageJ software. […]

SMILES | LC3-II levels in the presence of chloroquine compared with CQ treatment alone | LC3-II levels compared to the vehicle control | LC3-II levels in cells depleted of Atg5 by siRNA | LC3-II levels plus CQ compared with CQ treatment alone in cells transfected with non-target siRNA (Si-NT, with CQ) | expression of LC3-II, dose-dependent (0-1 μM, 12 hours, dose-dependent manner) | autophagy-enhancing effect, comparison among E series compounds tested (1 μM, 12 hours) | LC3-II levels compared with the control in cells transfected with non-target siRNA (Si-NT, 1 μM) | induced autophagy (LC3-II levels) after knock-down of TFEB (TFEB siRNA, 1 μM)
O=C(/C=C/c1cccc(C(F)(F)F)c1)/C=C/c1cccc(C(F)(F)F)c1 [A2, 1,5-bis(3-(trifluoromethyl)phenyl)penta-1,4-dien-3-one] | further increase | significantly increase | failed to increase |  |  |  |  | 
O=C(/C=C/c1ccc(O)cc1)/C=C/c1ccc(O)cc1 [B3, 1,5-bis(4-hydroxyphenyl)penta-1,4-dien-3-one] | further increase | significantly increase | failed to increase |  |  |  |  | 
COc1ccccc1/C=C/C(=O)/C=C/c1ccccc1OC [C1, 1,5-bis(2-methoxyphenyl)penta-1,4-dien-3-one] | further increase | significantly increase | failed to increase | further increased |  |  |  | 
O=C(/C=C/c1ccccc1Cl)/C=C/c1ccccc1Cl [E2] | further increase | significantly increase |  |  |  |  |  | 
O=C(/C=C/c1ccccc1Br)/C=C/c1ccccc1Br [E3] | further increase | significantly increase |  |  |  |  |  | 
O=C(/C=C/c1ccccc1I)/C=C/c1ccccc1I [E4] | further increase | significantly increase |  |  | significantly increase | best autophagy-enhancing effect | significantly increases | attenuated
COc1cc(/C=C/C(=O)CC(=O)/C=C/c2ccc(O)c(OC)c2)ccc1O [curcumin, Curcumin, reference compound] |  | significantly increase | failed to increase |  |  |  |  | 
